# Measured values as given in US12083094B2, “Cannabinoid composition and methods of treatment using the same” (CANNPAL ANIMAL THERAPEUTICS LIMITED, priority 2018, dated 2024).
# Experiment: Blood sampling for THC and CBD plasma concentration after single oral dosing
# Conditions: oral
# Protocol: Two compositions, IVP1 and IVP2, were administered in varying amounts in the study.
# Dosage volumes were calculated prior to Day 0, to provide the target dosage in mg/kg bodyweight based on actual dog bodyweights and IVP active ingredient composition based on the Certificates of Analysis.
# Blood samples of approximately 5 mL were collected at each drug concentration sampling time-point from each animal using 22-gauge needles and 5 mL syringes.
# The data points from Table 4 and Table 5 were also plotted and these graphs are set out in FIGS. 1-16.
# [1] = dog, plasma, CBD concentration in blood plasma, individual dogs 1-4, 0.12 mg/kg CBD + 0.24 mg/kg THC oral once
# [2] = dog, plasma, CBD concentration in blood plasma, individual dogs 5-8, 0.24 mg/kg CBD + 0.12 mg/kg THC oral once
# [3] = dog, plasma, CBD concentration in blood plasma, mean of dogs 1-4, 0.12 mg/kg CBD + 0.24 mg/kg THC oral once
# [4] = dog, plasma, CBD concentration in blood plasma, mean of dogs 5-8, 0.24 mg/kg CBD + 0.12 mg/kg THC oral once
smiles,measurement,setting,value
"C=C(C)[C@@H]1CCC(C)=C[C@H]1c1c(O)cc(CCCCC)cc1O [CBD, Cannabidiol]",AUC of CBD after 0.12 mg/kg THC/0.24 mg/kg CBD relative to AUC of CBD after 0.24 mg/kg THC/0.12 mg/kg CBD,canine,more than twice
same,concentration at 0 h,[1],0 ng/mL
same,concentration at 1.5 h,[1],7.5 ng/mL
same,concentration at 2 h,[1],6.27 ng/mL
same,concentration at 32 h,[1],0 ng/mL
same,concentration at 0 h,[2],0 ng/mL
same,concentration at 2 h,[2],23.7 ng/mL
same,concentration at 3 h,[2],9.21 ng/mL
same,concentration at 4 h,[2],5.28 ng/mL
same,concentration at 12 h,[2],0.88 ng/mL
same,concentration at 16 h,[2],0.55 ng/mL
same,concentration at 24 h,[2],0.38 ng/mL
same,concentration at 32 h,[2],0.28 ng/mL
same,concentration at 72 h,"dog, plasma, CBD concentration in blood plasma, individual dogs 5-8, 0.24 mg/kg CBD + 0.12 mg/kg THC oral once, 72 h",0 ng/mL
same,concentration at 0 h,[3],0 ng/mL
same,concentration at 0.67 h,[3],12.3 ng/mL
same,concentration at 1 h,[3],11.2 ng/mL
same,concentration at 1.5 h,[3],8.6 ng/mL
same,concentration at 2 h,[3],6.89 ng/mL
same,concentration at 3 h,[3],4.31 ng/mL
same,concentration at 4 h,[3],2.9 ng/mL
same,concentration at 6 h,[3],2.02 ng/mL
same,concentration at 8 h,[3],1.3 ng/mL
same,concentration at 12 h,[3],0.41 ng/mL
same,concentration at 16 h,[3],0.16 ng/mL
same,concentration at 24 h,[3],0.11 ng/mL
same,concentration at 32 h,[3],0 ng/mL
same,concentration at 0 h,[4],0 ng/mL
same,concentration at 0.67 h,[4],30.1 ng/mL
same,concentration at 1 h,[4],35.8 ng/mL
same,concentration at 1.5 h,[4],26.9 ng/mL
same,concentration at 2 h,[4],17.9 ng/mL
same,concentration at 3 h,[4],7.5 ng/mL
same,concentration at 4 h,[4],4.53 ng/mL
same,concentration at 6 h,[4],3.31 ng/mL
same,concentration at 8 h,[4],2.79 ng/mL
same,concentration at 12 h,[4],0.77 ng/mL
same,concentration at 16 h,[4],0.54 ng/mL
same,concentration at 24 h,[4],0.35 ng/mL
